Assays:
[1] = dihydropyridine-based compound alone, well known; cited from earlier work
rat, Wistar outbred = experiment: Example AA: 14-day oral (diet) dose-range toxicity study; assay type: in vivo; conditions: via the diet, 14 consecutive days
Text: The aim of this study is to select appropriate dose-levels for the main study.
Materials and Methods: • Groups: one control group and four test groups (4 males and 4 female per group) administered with different dose levels of the test substance; • Housing: 2 rats/sex/cage, macrolon cages; • Species: rat, Wistar outbred, Charles River Wiga GmbH, 9-10 weeks of age at start; • Carrier: Commercial rodent diet (Rat & Mouse No. 3 Breeding diet, RM3), ad libitum; • Treatment: Administration via the diet during 14 consecutive days; one batch of test diets is prepared shortly before initiation of treatment and stored in a freezer/refrigerator; the feed in the animal feeders is refreshed twice per week; • Clinical observations: general observations (all rats): daily; morbidity is checked again in the afternoon; • Body weight: at least once pretest, twice per week from the start of treatment (for the last time, on the day of scheduled necropsy); • Food consumption: twice weekly per cage (2 rats/cage) from the start of treatment; • Water consumption: visual inspection of the drinking bottles; • Pathology: • macroscopic examination (all rats); • weighing the following organs of all the surviving rats: kidneys, liver, spleen, testes, thymus; • preservation: the weighed organs are preserved in formalin and discarded when the results of the subsequent 90-day study indicate non need for microscopy on tissues from the 14-day study;
(§1) On each day of analysis, calibration solutions are prepared by spiking rodent diet with a stock solution of the organotin compound followed by derivatisation with sodium tetraethyl borate, in order to derivatise the octyltin compounds to the corresponding octyltin-ethyl compounds, with simultaneous extraction of the derivatised compounds into hexane.
(§2) The concentration of the test substance in diet is then determined by GC-MS of the hexane extracts.

wistar rats = experiment: Example AB: reproduction/developmental toxicity screening test (OECD 421); assay type: in vivo, rat
Text: The objective of this study is to assess whether octyltin tris (2-ethylexylmercaptoacetate) causes adverse effects on reproduction and/or development of wistar rats. This study was preceded by a dose-range finding study (see Example AA).
Materials and Methods: • Groups: one control group and three test groups (12 males and 12 female per group) administered with different dose levels of the test substance; • Housing: Pre-mating (PM): 4 rats/sex/cage, macrolon cages; • Mating (M): 1 male and 1 female per cage; • Gestation (G) and lactation: 1 rat/sex/cage, macrolon cages; • Species: rat, Wistar outbred, Charles River Wiga GmbH, 9-10 weeks of age at start; • Carrier: Commercial rodent diet (Rat & Mouse No. 3 Breeding diet, RM3), ad libitum; • Treatment: Administration via the diet during 14 consecutive days premating; during 14 consecutive days mating, gestation and lactation up to 4 days (males are given the test substance in the diet until sacrifice at the end of the mating period); • one or two batches of test diets are prepared shortly before initiation of treatment and stored in a freezer/refrigerator; the feed in the animal feeders is refreshed once per week; • Clinical observations: general clinical observations (all rats): daily; morbidity is checked again in the afternoon; • Body weight: at least once pretest, males and females, premating and mating weekly; • Food consumption: males and females, premating and mating weekly; for female during gestation: GD 0, 7, 14 and 21 during lactation; PN 1 and 4; • Pups: sex, body, weight, number of live and dead pups, clinical signs PN 1 and 4; • Water consumption: visual inspection of the drinking bottles; • Pathology: • macroscopic examination (all rats); • count: number of implantations (uterus) and corpora lutea (ovaria); • weighing the following organs of all the surviving rats: testes (males), epididymes […], thymus; • preservation all animals): testes, epididymes, seminal vesicles, prostate, ovaries, uterus, thymus and organs and tissues showing macroscopic abnormalities; the organs are preserved in formalin and discarded when the results of the OECD 421 study indicate non need for microscopy; • Histopathology: preserved tissues for control and high level only […].
as §1, §2

[2] = rat, 200, 500 and 1250 mg/kg diet

CCCCCCCCCCCCOC(=O)C1=C(C)NC(C)=C(C(=O)OCCCCCCCCCCCC)C1 [DHP, dihydro-1,4-dimethyl-2,6-dicarbododecyloxy-3,5-pyridine]
result in dynamic thermal stability (colour) test [1]: poor results

CCCCCCC[CH2][Sn]([S]CC(=O)OCC(CC)CCCC)([S]CC(=O)OCC(CC)CCCC)[S]CC(=O)OCC(CC)CCCC (centres unmarked) [octyltin tris (2-ethylexylmercaptoacetate)]
abnormalities at necropsy (rat, Wistar outbred): no abnormalities were observed at necropsy | change in body weight and food consumption (rat, Wistar outbred): no change in body weight and food consumption | clinical abnormalities (rat, Wistar outbred): no clinical abnormalities were observed | effects on organ weights (rat, Wistar outbred): no effects were observed on organ weights | NOAEL expressed per body weight (wistar rats; female animals): ~96 mg/kg body weight/day | NOAEL expressed per body weight (wistar rats; male animals): approximately 72 mg/kg body weight/day | effects on pre- and post-natal development (wistar rats; [2]): No effects were observed | effects on reproduction organs (wistar rats; [2]): No effects were observed | tolerability of oral administration (wistar rats; [2]): well tolerated at all dose-levels | no averse effect level (NOAEL) for parental toxicity, fertility and development (wistar rats; rat, oral via the diet): 1250 mg/kg diet
